# Test results taken from PMC11532403 (Signal Transduction and Targeted Therapy, 2024).
# Values joined by “and” are separate entries in the source; they are usually repeats but may differ in a detail not shown here. Equal entries are not always repeated.
# System: RET-altered solid tumors
# Experiment: Phase 1 trial: anti-tumor efficacy (RECIST 1.1)
# Assay type: in vivo, human
# Settings: for PFS Follow-up (m) / PFS: Type of event: individual patients; for Best overall response: Partial response / Best overall response: Progressive disease / Best overall response: Stable disease / DCR, % (95% CI) / Median DoR, months (95% CI) / Median PFS, months (95% CI) / Median TTR, months (95% CI) / ORR, % (95% CI): patients with detectable RET variations
# Method: Radiologic tumor assessments were conducted by computed tomography (CT) or magnetic resonance imaging (MRI) of brain, chest, abdomen, and pelvis at baseline, 4 weeks for the first tumor assessment, then every 8 weeks (± 7 days) for 1 year, and every 12 weeks (± 7 days) thereafter. MTC patients were longitudinally monitored for serum calcitonin and carcinoembryonic antigen (CEA) levels.
# [1] = RP2D, PTC, treatment-naïve (n = 1)
# [2] = Treatment-naïve, 40 mg BID (n = 1)
# [3] = Treatment-naïve, 160 mg BID (n = 37)
# [4] = Treatment-naïve, 200 mg BID (n = 2)
# [5] = Treatment-naïve, all doses (n = 40)
# [6] = baseline ctDNA detectable RET alterations (n = 61)
# [7] = baseline ctDNA undetectable RET alterations (n = 53)
# [8] = ctDNA analysis, all patients (n = 114)
compound,measurement,setting,value
"COc1ccc(CN2C3CC2CN(c2ccc(-c4cc(N5CC(C)(O)C5)cn5ncc(C#N)c45)cn2)C3)cn1 [SY-5007, 6-(3-hydroxy-3-methylazetidin-1-yl)-4-(6-(6-((6-methoxypyridin-3-yl)methyl)-3,6-diazabicyclo[3.1.1]heptan-3-yl)pyridin-3-yl)pyrazolo[1,5-a]pyridine-3-carbonitrile]",ORR (95% CI),[1],0 (0.0-97.5) %
same,Partial response,[1],0 (0.0) n (%)
same,Progressive disease,[1],0 (0.0) n (%)
same,Stable disease,[1],1 (100.0) n (%)
same,Median PFS (95% CI),[2],1.67 (NE-NE) months
same,ORR (95% CI),[2],0 (0.0–97.5) %
same,Partial response,[2],0 (0.0) n (%)
same,Progressive disease,[2],0 (0.0) n (%)
same,Stable disease,[2],1 (100.0) n (%)
same,DCR (95% CI),"Treatment-naïve, 40 mg BID (n = 1), 40 mg twice daily",100.0 (2.5–100.0) %
same,DCR (95% CI),[3],94.6 (81.8–99.3) %
same,Median DoR (95% CI),[3],14.5 (9.26-NE) months
same,Median PFS (95% CI),[3],15.5 (9.23-NE) months
same,Median TTR (95% CI),[3],2.75 (0.98–2.89) months
same,ORR (95% CI),[3],70.3 (53.0–84.1) %
same,Partial response,[3],26 (70.3) n (%)
same,Progressive disease,[3],2 (5.4) n (%)
same,Stable disease,[3],9 (24.3) n (%)
same,DCR (95% CI),[4],100.0 (15.8–100.0) %
same,Median DoR (95% CI),[4],5.32 (5.06-NE) months
same,Median PFS (95% CI),[4],6.22 (5.98-NE) months
same,Median TTR (95% CI),[4],0.93 (0.91-NE) months
same,ORR (95% CI),[4],100.0 (15.8–100.0) %
same,Partial response,[4],2 (100.0) n (%)
same,Progressive disease,[4],0 (0.0) n (%)
same,Stable disease,[4],0 (0.0) n (%)
same,DCR (95% CI),[5],95.0 (83.1–99.4) %
same,Median DoR (95% CI),[5],14.5 (6.47–NE) months
same,Median PFS (95% CI),[5],15.5 (9.23–NE) months
same,Median TTR (95% CI),[5],2.75 (0.95–2.89) months
same,ORR (95% CI),[5],70.0 (53.5–83.4) %
same,Partial response,[5],28 (70.0) n (%)
same,Progressive disease,[5],2 (5.0) n (%)
same,Stable disease,[5],10 (25.0) n (%)
same,Estimated 6-month PFS rate,all patients,86.1%
same,Estimated 12-month PFS rate,all patients,68.9%
same,Patients with progression events or death,all patients in phase 1,29 (23.8%) n (%)
same,DCR (95% CI),[6],96.7 (88.7-99.6) %
same,Median DoR (95% CI),[6],13.0 (9.23-19.9) months
same,Median PFS (95% CI),[6],13.8 (10.0-15.5) months
same,Median TTR (95% CI),[6],2.79 (1.01-6.73) months
same,ORR (95% CI),[6],57.4 (44.1-70.0) %
same,Partial response,[6],35 (57.4) n (%)
same,Progressive disease,[6],2 (3.3) n (%)
same,Stable disease,[6],24 (39.3) n (%)
same,DCR (95% CI),[7],94.3 (84.3-98.8) %
same,Median TTR (95% CI),[7],3.15 (2.75-6.30) months
same,ORR (95% CI),[7],60.4 (46.0-73.5) %
same,Partial response,[7],32 (60.4) n (%)
same,Progressive disease,[7],3 (5.7) n (%)
same,Stable disease,[7],18 (34.0) n (%)
same,DCR (95% CI),[8],95.6 (90.1-98.6) %
same,Median DoR (95% CI),[8],19.9 (12.8-NE) months
same,Median PFS (95% CI),[8],21.1 (13.8-NE) months
same,Median TTR (95% CI),[8],2.79 (2.75-4.66) months
same,ORR (95% CI),[8],58.8 (49.2-67.9) %
same,Partial response,[8],67 (58.8) n (%)
same,Progressive disease,[8],5 (4.4) n (%)
same,Stable disease,[8],42 (36.8) n (%)
same,ORR,ctDNA-detectable KIF5B-RET (27/46),58.7%
same,ORR,ctDNA-detectable RET mutations (3/9),33.3%
same,ORR,ctDNA-detectable other RET fusions (5/7),71.4%
same,Median PFS,"detectable RET, concomitant TP53 mutation",10.1 months
same,ORR,"detectable RET, concomitant TP53 mutation (11/22)",50.0%
same,Median PFS,"detectable RET, without TP53 mutation",15.4 months
same,ORR,"detectable RET, without TP53 mutation (24/39)",61.5%
same,ORR,dose-escalation phase (9/17),52.9%
same,DCR,dose-escalation phase (16/17),94.1%
same,ORR,dose-expansion phase (58/99),58.6%
same,DCR,dose-expansion phase (95/99),96.0%
same,1-year DoR rate,in vivo,74.1%
same,PFS Follow-up (m),"GC, 160mg BID",1.02 m
same,PFS: Type of event,"GC, 160mg BID",Censoring
same,PFS Follow-up (m),"MTC, 160mg BID",5.75 m and 0.99 m and 2.76 m and 2.66 m and 6.41 m and 4.60 m and 0.85 m and 0.92 m and 14.72 m and 6.44 m and 11.96 m and 6.51 m and 13.90 m and 8.41 m and 4.57 m and 8.51 m and 6.60 m and 2.86 m and 8.38 m
same,PFS: Type of event,"MTC, 160mg BID",Censoring
same,PFS Follow-up (m),"NSCLC, 20mg BID",27.14 m
same,PFS Follow-up (m),"NSCLC, 20mg QD",4.83 m
same,PFS: Type of event,"NSCLC, 20mg QD",Censoring
same,PFS Follow-up (m),"NSCLC, 40mg BID",25.07 m and 10.29 m and 1.68 m
same,PFS: Type of event,"NSCLC, 40mg BID",Censoring
same,PFS Follow-up (m),"NSCLC, 80mg BID",23.30 m and 6.64 m and 23.23 m
same,PFS: Type of event,"NSCLC, 80mg BID",Censoring
same,PFS Follow-up (m),"NSCLC, 120mg BID",21.39 m and 21.42 m and 21.13 m
same,PFS: Type of event,"NSCLC, 120mg BID",Censoring
same,PFS Follow-up (m),"NSCLC, 200mg BID",11.99 m and 11.96 m and 5.98 m and 5.75 m and 17.74 m and 3.15 m and 6.47 m and 12.16 m and 0.89 m
same,PFS: Type of event,"NSCLC, 200mg BID",Censoring
same,PFS Follow-up (m),"PTC, 160mg BID",8.35 m and 2.79 m and 8.38 m and 8.48 m and 6.67 m and 2.89 m and 2.92 m
same,ORR,non-clearance or unknown RET alterations at Cycle 1 Day 28 (16/42),38.1%
same,Best overall response: Partial response,"TP53 mutant, n=22",11 (50.0)
same,Best overall response: Progressive disease,"TP53 mutant, n=22",0 (0.0)
same,Best overall response: Stable disease,"TP53 mutant, n=22",11 (50.0)
same,"DCR, % (95% CI)","TP53 mutant, n=22",100.0 (84.6-100.0) %
same,"Median DoR, months (95% CI)","TP53 mutant, n=22",13.0 (2.82-NE) months
same,"Median PFS, months (95% CI)","TP53 mutant, n=22",10.1 (6.21-NE) months
same,"Median TTR, months (95% CI)","TP53 mutant, n=22",2.89 (0.95-NE) months
same,"ORR, % (95% CI)","TP53 mutant, n=22",50.0 (28.2-71.8) %
same,Best overall response: Partial response,"TP53 wild-type, n=39",24 (61.5)
same,Best overall response: Progressive disease,"TP53 wild-type, n=39",2 (5.1)
same,Best overall response: Stable disease,"TP53 wild-type, n=39",13 (33.3)
same,"DCR, % (95% CI)","TP53 wild-type, n=39",94.9 (82.7-99.4) %
same,"Median DoR, months (95% CI)","TP53 wild-type, n=39",19.9 (6.47-NE) months
same,"Median PFS, months (95% CI)","TP53 wild-type, n=39",15.4 (9.23-NE) months
same,"Median TTR, months (95% CI)","TP53 wild-type, n=39",2.79 (0.98-6.73) months
same,"ORR, % (95% CI)","TP53 wild-type, n=39",61.5 (44.6-76.6) %
same,Best overall response: Partial response,"all patients, n=61",35 (57.4)
same,Best overall response: Progressive disease,"all patients, n=61",2 (3.3)
same,Best overall response: Stable disease,"all patients, n=61",24 (39.3)
same,"DCR, % (95% CI)","all patients, n=61",96.7 (88.7-99.6) %
same,"Median DoR, months (95% CI)","all patients, n=61",13.0 (9.23-19.9) months
same,"Median PFS, months (95% CI)","all patients, n=61",13.8 (10.0-15.5) months
same,"Median TTR, months (95% CI)","all patients, n=61",2.79 (1.01-6.73) months
same,"ORR, % (95% CI)","all patients, n=61",57.4 (44.1-70.0) %
same,ORR,patients with rapid ctDNA clearance of RET alteration,100%
same,Median TTR,patients with rapid ctDNA decline/clearance of RET alteration,0.91 months
